From BindingDB's records for doi:10.1021/jm00023a009 (University of Paris, 1995)

assay: In vitro inhibition of EGF-stimulated DNA synthesis of ER 22 cells by following the incorporation of methyl-[3H]thymidine.

Compared with `O=C(NCc1ccccc1)c1ccc(-c2cc(O)cc(-c3ccccc3)c2)cc1`, `O=C(NCc1ccccc1)c1ccc(-c2ccc(-c3ccccc3)cc2O)cc1` [2'-Hydroxy-[1,1';4',1'']terphenyl-4-carboxylic acid benzylamide] is 5.7-fold lower in IC50: 8 µM for the first, 1.4 µM for the second. The second is the more potent here.

`COCOc1c(-c2ccccc2)cccc1-c1ccc(C(=O)OCC(C)CC(C)(C)C)cc1` (stereo not given) and `CC(COC(=O)c1ccc(-c2cccc(-c3ccccc3)c2O)cc1)CC(C)(C)C` (stereo not given) cannot be ordered by IC50: over 10 µM for the first, over 10 µM for the second.

Compared with `CC(C)(C)c1cc(O)cc(-c2ccc(C(=O)NCc3ccccc3)cc2)c1` [3'-tert-Butyl-5'-hydroxy-biphenyl-4-carboxylic acid benzylamide], `CC(C)(C)c1cc(O)cc(-c2ccc(C(=O)O)cc2)c1` [3'-tert-Butyl-5'-hydroxy-biphenyl-4-carboxylic acid] is higher in IC50: 5.4 µM for the first, over 20 µM for the second. The first is the more potent here.

`COCOc1cc(-c2ccccc2)ccc1-c1ccc(C(=O)O)cc1` and `COCOc1cc(-c2ccccc2)ccc1-c1ccc(C(=O)OC)cc1` cannot be ordered by IC50: 10 µM for the first, over 5 µM for the second.

`CC(COC(=O)c1ccc(-c2cc(O)cc(C(C)(C)C)c2)cc1)CC(C)(C)C` (stereo not given) and `CC(COC(=O)c1ccc(-c2cc(O)cc(-c3ccccc3)c2)cc1)CC(C)(C)C` (stereo not given) cannot be ordered by IC50: over 5 µM for the first, over 5 µM for the second.

`COC(=O)c1ccc(-c2ccc(C(C)(C)C)cc2O)cc1` and `COCOc1cc(C(C)(C)C)ccc1-c1ccc(C(=O)OC)cc1` [4'-tert-Butyl-2'-methoxymethoxy-biphenyl-4-carboxylic acid methyl ester] cannot be ordered by IC50: over 5 µM for the first, 10 µM for the second.

Going from `COCOc1cc(-c2ccccc2)ccc1-c1ccc(C(=O)NCc2ccccc2)cc1` [2'-Methoxymethoxy-[1,1';4',1'']terphenyl-4-carboxylic acid benzylamide] to `COC(=O)c1ccc(-c2cccc(-c3ccccc3)c2O)cc1` [2'-Hydroxy-[1,1';3',1'']terphenyl-4-carboxylic acid methyl ester], the IC50 rises from 1.1 µM to over 5 µM.

Molecule `O=C(O)c1ccc(-c2cc(O)cc(-c3ccccc3)c2)cc1` has an IC50 of 10 µM.
